System: NO-synthase inductible (iNOS)
Assay: iNOS induction test: nitrites in RAW264.7 supernatants by Griess reaction after nitrate reduction
Assay type: cell-based, murins
Conditions: IFNγ + LPS
From the text: Cette hypothèse a été contrôlée en dosant les nitrites dans des surnageants de culture de macrophages murins de lignées activées en présence de AVF1. Les nitrites ont été dosés par la réaction de Griess après réduction de tous le nitrates grâce à la nitrate réductase de Pseudomonas oleoverans (Granger et al., J. Immunol., 1991, 146, 1294-1302). La spécificité de la réaction a été prouvée par l'emploi d'un inhibiteur spécifique de la synthèse du monoxyde d'azote, la N^G-monométhyl-L-arginine (L-NMMA).
Le test d'induction iNOS consiste à ensemencer les macrophages RAW264.7 dans des plaques à 24 puits à raison de 1 x 10^6 sous 1,6 ml. Après 24 heures de culture permettant d'obtenir un tapis cellulaire complet, AVF1, dilué de raison 10 dans des des doses ne donnant pas de toxicité cellulaire (de 10^-6 à 10^-8 %), est ajouté dans 100 µl par cupule soit sur des macrophages sans activateur, avec ou sans l'inhibiteur de iNOS (action directe du produit sur les macrophages) soit en présence des inducteurs, avec ou sans inhibiteur (action du produit sur des macrophages activés).
Après 24 heures de culture, les surnageants sont prélevés, centrifugés 10 minutes à 100 g à température ambiantes pour éliminer les éventuels débris cellulaires puis utilisés pour le dosage des nitrites.
Deux volumes des surnageants clarifiés sont réduits en présence d'un volume d'une suspension de Pseudomonas oleovorans à 100 mg/ml et un volume de D-MEM sans rouge de phénol. Après une incubation de 90 minutes à 37°C sans agitation, les mélanges sont centrifugés 5 minutes à 4 000 g pour éliminer les bactéries et dilués au 1/5 et au 1/10 en eau distillée stérile.
100 µl des échantillons réduits et dilués sont distribués dans des séries de 2 puits dans une plaque ELISA (maxicorp, Nunc.). 200 µl du réactif de Griess (mélange ex-temporané volume à volume des solutions de sulfamide à 1,5 g/100 ml de HCl 1,2 N (87,1 mM) - réactif A - et de naphtylènediamine à 0,15 g/100 ml d'eau stérile (5,78 mM) - réactif B -) sont ajoutés.
Cent autres µl d'échantillon servant de blanc de DO sont distribués et mélangés à 200 µl d'un mélange ex-temporané volume à volume d'eau distillée et du réactif colorimétrique A.
Après 30 minutes à température ambiante à l'obscurité, la densité optique (DO) des échantillons est lue à 540 nm au lecteur de plaque pour ELISA.
• Les contrôles du système d'induction iNOS sont composés de : • . Témoin cellules consistant en des macrophages ne recevant que du milieu de culture. • . Témoin d'induction consistant en des macrophages traités par 100 µl de lipopolysaccharide (LPS à 4 µg/ml, Difco) et par 100 µl d'interféron-γ recombinant (IFN-γ à 1 µU/ml, Boerhinger-Mannheim) afin d'activer la iNOS (Schmidt et al., Mol. Pharmacol., 1992, 41, 614-624). Les solutions mères de LPS et de IFN-γont été conservées respectivement à +4°C et à -20°C avant utilisation. • . Témoin d'inhibition spécifique pour prouver que les nitrites dosés proviennent de l'activation de la iNOS. Il consiste à incorporer à la culture un inhibiteur spécifique, la L-NMMA (N^G-monométhyl-L-arginine, Calbiochem) (Hibbs et al., Science, 1987, 235, 473-476) à des concentrations de raison 10 allant de 3 à 300 µM. Cette solution a été conservée sous parties aliquotes à -20°C avant utilisation. • Les contrôles de la réaction de Greiss sont composés de : • . Une solution de nitrate de sodium qui permet de contrôler l'activité nitrate-réductase des bactéries. • . Une gamme étalon de nitrite de sodium qui permet de doser les nitrites dans les échantillons. • Le blanc de DO de la gamme étalon contenant 100 µl d'eau distillée et 200 µl du mélange des réactifs A et B.

[1] = L-NMMA (300 µM) alone (no AVF1)

CNC(=N)NCCC[C@H](N)C(=O)O [L-NMMA, N^G-monométhyl-L-arginine, reference compound]
Concentration moyenne en nitrites en µM sur 2 échantillons (L-NMMA (3 µM) alone (no AVF1)): 20,9 µM | Pourcentage d'inhibition de la production de nitrite (L-NMMA (3 µM) alone (no AVF1)): 0% | Concentration moyenne en nitrites en µM sur 2 échantillons (L-NMMA (30 µM) alone (no AVF1)): 14,7 µM | Pourcentage d'inhibition de la production de nitrite (L-NMMA (30 µM) alone (no AVF1)): 29% | Concentration moyenne en nitrites en µM sur 2 échantillons [1]: 9,3 µM | Pourcentage d'inhibition de la production de nitrite [1]: 55%

— patent EP0804408B1, “NOVEL 4-SUBSTITUTED 2,6-DI-TERT-BUTYLPHENOL COMPOUNDS, PHARMACEUTICAL COMPOSITIONS CONTAINING SAME AND PREPARATION METHOD THEREFOR” (priority 1994, dated 1996)
